In US20070179085A1, “MODULATION OF RHAMM-CAVEOLIN/LIPID RAFT INTERACTIONS TO AFFECT DEVELOPMENT, RESPONSES TO TISSUE INJURY, ANGIOGENESIS, TUMORIGENESIS, METASTASIS AND GROWTH FACTOR/CYTOKINE RESPONSES” (priority 2005, published 2007):

What was measured:
male Sprague-Dawley rats = experiment: Intratracheal bleomycin lung injury: macrophage accumulation (ED1) and lung architecture; type: in vivo, rat
Excerpt: The Institutional Animal Care and Utilization Committees at both The Childrenls Hospital of Philadelphia and The University of Pennsylvania School of Medicine approved all animal care procedures. Six-week old (200-250 grams) male Sprague-Dawley rats (Charles River Breeding Laboratories, N. Wilmington, Mass.) were housed in the Animal Care Facility of The Children's Hospital of Philadelphia under standard conditions with free access to food and water. Animals were anesthetized with ketamine:xylazine:atropine (16:8:0.01 mg/kg), and the trachea was visualized through a vertical incision in the neck. Using an insulin syringe, 250 μl of either LPS-free saline or 8 units/kg bleomycin sulfate (Bristol Myers Squibb, Princeton, N.J.) in 250 μl of saline was injected into the trachea. The incision was closed with surgical clips, and animals were immediately injected intraperitoneally with either 0.5 mg of anti-RHAMM antibody (R36) or non-immune IgG. Antibody treatment was continued with daily injections of 0.5 mg of either R36 or IgG for either three or six days. At least three animals were examined for each condition, including one set that remained unmanipulated throughout.
Animals were sacrificed on days 4 or 7 after injury. Bronchoalveolar lavage (BAL) was obtained (36 ml/kg, total lung capacity) and immediately centrifuged at 500 g for 10 minutes to remove all cells and cellular debris. Approximately 80-90% of lavage was routinely recovered. The cellular pellet and the supernatant were separated and frozen at −70° C. until further analysis. […]
Macrophage accumulation was quantified by immunofluorescent staining with the rat macrophage specific marker ED1 (Serotec, Raleigh, N.C.). Endogenous fluorescence was blocked with separate exposure to sodium borohydrate (1 g/10 ml PBS, 3 minutes×2) and 1 M glycine in PBS for 30 minutes. […] Three blinded, independent observers counted ED 1 positive cells per high power field to quantify macrophage accumulation in at least three lung sections from each animal. […]

alveolar macrophages = experiment: Timelapse cinemicrography of macrophage motility; type: cell-based, rat; conditions: macrophages from bleomycin treated animals, 4 days
Protocol: Freshly isolated cells from bronchoalveolar lavage of saline or bleomycin-treated animals were monitored for their motility using a Nikon TE-300 inverted microscope (Nikon Corp., Tokyo, Japan) to which a video camera (Hamamatsu CCD, Inc., Hamamatsu City, Japan) was attached. Cell locomotion of at least 20 cells per animal was determined using Metamorph (Universal Imaging Corp., Downingtown, Pa.). Cells were plated and maintained at 37° C. and followed for 2 hours with mean velocities calculated every 10 minutes. The effect of anti-RHAMM antibody was examined by adding 5 μg/ml of antibody per plate per treatment 15 minutes before measurement of motility. Non-immune IgG was used as a control. Each experiment was repeated at least three times.

bleomycin sulfate
increase in macrophage number (male Sprague-Dawley rats; IT bleomycin, ED1 positive cells per hpf): 3 fold
macrophage number (ED1 positive cells) (male Sprague-Dawley rats; lung sections after IT bleomycin 8 units/kg, R36 0.5 mg ip daily): 28.4±4.7 cells per hpf
lung architecture at seven days (male Sprague-Dawley rats; tissue sections, bleomycin-injured rats): influx of inflammatory cells with thickening of alveolar septae and early fibrosis
increase in motility of alveolar macrophages (alveolar macrophages): 5 fold
